{
  "source": "BindingDB's records for doi:10.3109/14756369709035816",
  "about": "(R & D, Zambon Group, 1997)",
  "molecular_target": "T1, Neprilysin (Rattus norvegicus, UniProt P07861)",
  "T1 sequence (P07861 whole entry)": "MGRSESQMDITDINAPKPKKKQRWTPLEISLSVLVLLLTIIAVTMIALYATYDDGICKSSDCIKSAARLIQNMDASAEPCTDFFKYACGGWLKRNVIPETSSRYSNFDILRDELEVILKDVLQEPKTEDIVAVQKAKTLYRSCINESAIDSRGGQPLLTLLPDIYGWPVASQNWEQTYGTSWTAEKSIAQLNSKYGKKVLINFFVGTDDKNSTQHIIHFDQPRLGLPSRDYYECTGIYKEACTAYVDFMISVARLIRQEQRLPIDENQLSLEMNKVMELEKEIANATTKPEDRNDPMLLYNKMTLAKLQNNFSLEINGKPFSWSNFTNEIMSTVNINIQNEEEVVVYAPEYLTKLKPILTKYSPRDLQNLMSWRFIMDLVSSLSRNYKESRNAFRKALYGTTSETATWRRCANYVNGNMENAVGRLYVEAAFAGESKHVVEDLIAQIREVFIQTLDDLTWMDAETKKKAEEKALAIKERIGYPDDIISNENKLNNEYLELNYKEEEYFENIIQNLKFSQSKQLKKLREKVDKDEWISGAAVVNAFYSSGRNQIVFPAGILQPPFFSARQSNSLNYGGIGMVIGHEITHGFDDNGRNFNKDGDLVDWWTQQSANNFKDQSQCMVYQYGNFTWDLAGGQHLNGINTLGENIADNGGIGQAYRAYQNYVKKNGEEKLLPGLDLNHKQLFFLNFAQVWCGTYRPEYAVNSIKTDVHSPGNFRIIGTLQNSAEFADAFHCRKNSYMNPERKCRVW",
  "test": "Enzyme Inhibition Assay",
  "details": "25 °C",
  "from_the_text": "Enzyme inhibition assay using neutrol endopeptiase EC 3.4.24.11 (NEP).",
  "data": [
    {"compound": "CN(C)C(=O)c1ccnc(NC(=O)C(CS)Cc2ccccc2)c1", "note": "(configuration not stated) [NEP inhibitor, 6r]", "values": [
      {"measurement": "IC50", "value": 5, "unit": "nM"}
    ]},
    {"compound": "O=C(O)c1ccnc(NC(=O)C(CS)Cc2ccc3c(c2)OCO3)c1", "note": "(configuration not stated) [NEP inhibitor, 6j]", "values": [
      {"measurement": "IC50", "value": 5.5, "unit": "nM"}
    ]},
    {"compound": "O=C(O)c1cc(NC(=O)C(CS)Cc2ccc(Cl)cc2)c[nH]1", "note": "(configuration not stated) [NEP inhibitor, 6n]", "values": [
      {"measurement": "IC50", "value": 2, "unit": "nM"}
    ]},
    {"compound": "O=C(O)c1cc(NC(=O)C(CS)Cc2ccccc2)c[nH]1", "note": "(configuration not stated) [NEP inhibitor, 6m]", "values": [
      {"measurement": "IC50", "value": 2, "unit": "nM"}
    ]},
    {"compound": "O=C(O)c1cncc(NC(=O)C(CS)Cc2ccccc2)c1", "note": "(configuration not stated) [NEP inhibitor, 6h]", "values": [
      {"measurement": "IC50", "value": 5, "unit": "nM"}
    ]},
    {"compound": "CC(CS)C(=O)Nc1cncc(C(=O)O)c1", "note": "(configuration not stated) [NEP inhibitor, 6g]", "values": [
      {"measurement": "IC50", "value": 60, "unit": "nM"}
    ]},
    {"compound": "O=C(O)c1ccnc(NC(=O)C(CS)Cc2ccccc2)c1", "note": "(configuration not stated) [NEP inhibitor, 6i]", "values": [
      {"measurement": "IC50", "value": 3, "unit": "nM"}
    ]},
    {"compound": "O=C(O)c1cc(NC(=O)C(CS)Cc2ccccc2)cs1", "note": "(configuration not stated) [NEP inhibitor, 6k]", "values": [
      {"measurement": "IC50", "value": 2, "unit": "nM"}
    ]},
    {"compound": "O=C(Nc1ccccc1)c1ccnc(NC(=O)C(CS)Cc2ccccc2)c1", "note": "(configuration not stated) [NEP inhibitor, 6s]", "values": [
      {"measurement": "IC50", "value": 250, "unit": "nM"}
    ]},
    {"compound": "O=C(O)c1csc(NC(=O)C(CS)Cc2ccccc2)n1", "note": "(configuration not stated) [NEP inhibitor, 6p]", "values": [
      {"measurement": "IC50", "value": 9, "unit": "nM"}
    ]},
    {"compound": "O=C(O)c1cc(NC(=O)C(CS)Cc2cccnc2)cs1", "note": "(configuration not stated) [NEP inhibitor, 6l]", "values": [
      {"measurement": "IC50", "value": 13, "unit": "nM"}
    ]},
    {"compound": "O=C(Nc1ccn[nH]1)C(CS)Cc1ccccc1", "note": "(configuration not stated) [NEP inhibitor, 6q]", "values": [
      {"measurement": "IC50", "value": 23, "unit": "nM"}
    ]}
  ]
}
